The source made the active and inactive calls.
How the values were obtained:
[1] = biological target: T1, Mitogen-activated protein kinase 15 (Homo sapiens, UniProt Q8TD08)
T1 sequence (Q8TD08 whole entry): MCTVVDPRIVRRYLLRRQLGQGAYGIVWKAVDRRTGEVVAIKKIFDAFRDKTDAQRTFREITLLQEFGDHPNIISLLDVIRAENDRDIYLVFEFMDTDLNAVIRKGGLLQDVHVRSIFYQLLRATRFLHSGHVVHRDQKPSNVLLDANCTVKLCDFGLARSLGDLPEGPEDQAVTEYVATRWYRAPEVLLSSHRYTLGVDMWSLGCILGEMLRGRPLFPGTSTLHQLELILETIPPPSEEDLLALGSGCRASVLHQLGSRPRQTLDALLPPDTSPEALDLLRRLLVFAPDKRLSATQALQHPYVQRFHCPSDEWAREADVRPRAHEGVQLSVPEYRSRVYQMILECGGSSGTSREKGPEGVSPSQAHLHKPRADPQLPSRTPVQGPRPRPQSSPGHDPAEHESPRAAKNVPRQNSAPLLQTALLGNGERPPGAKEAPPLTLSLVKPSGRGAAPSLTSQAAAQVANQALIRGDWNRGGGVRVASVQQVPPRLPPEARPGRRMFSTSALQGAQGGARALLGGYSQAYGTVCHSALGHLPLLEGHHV

[2] = biological target: Midasin (Homo sapiens, UniProt Q9NU22)
[3] = biological target: T2, Glycine--tRNA ligase (Homo sapiens, UniProt P41250)
T2 sequence (P41250 whole entry): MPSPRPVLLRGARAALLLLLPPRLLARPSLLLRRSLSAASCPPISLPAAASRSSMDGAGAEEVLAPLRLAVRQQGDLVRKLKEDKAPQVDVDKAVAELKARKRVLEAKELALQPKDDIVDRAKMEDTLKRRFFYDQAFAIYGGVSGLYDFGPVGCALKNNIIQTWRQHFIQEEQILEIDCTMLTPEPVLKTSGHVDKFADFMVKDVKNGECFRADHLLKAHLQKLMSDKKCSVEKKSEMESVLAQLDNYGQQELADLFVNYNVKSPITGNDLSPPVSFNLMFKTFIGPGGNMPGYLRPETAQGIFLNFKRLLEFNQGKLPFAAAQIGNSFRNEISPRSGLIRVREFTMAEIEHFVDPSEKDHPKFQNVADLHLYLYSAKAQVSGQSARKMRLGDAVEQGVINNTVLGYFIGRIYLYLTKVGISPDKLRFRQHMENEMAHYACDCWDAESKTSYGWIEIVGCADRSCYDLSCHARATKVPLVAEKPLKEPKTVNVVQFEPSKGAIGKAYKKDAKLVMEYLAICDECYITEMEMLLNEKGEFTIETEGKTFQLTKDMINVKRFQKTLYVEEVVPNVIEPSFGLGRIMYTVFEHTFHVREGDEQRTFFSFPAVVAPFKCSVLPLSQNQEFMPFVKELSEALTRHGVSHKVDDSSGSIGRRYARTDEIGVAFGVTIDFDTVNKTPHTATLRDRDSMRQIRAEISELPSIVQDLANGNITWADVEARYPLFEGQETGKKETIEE

[4] = biological target: Casein kinase I isoform epsilon (Homo sapiens, UniProt P49674)
[5] = biological target: Serine/threonine-protein kinase MRCK beta (Homo sapiens, UniProt Q9Y5S2)
[6] = biological target: STE20-like serine/threonine-protein kinase (Homo sapiens, UniProt Q9H2G2)
[7] = biological target: GTP-binding nuclear protein Ran (Homo sapiens, UniProt P62826)
[8] = biological target: T3, Cysteine--tRNA ligase, cytoplasmic (Homo sapiens, UniProt P49589)
T3 sequence (P49589 whole entry): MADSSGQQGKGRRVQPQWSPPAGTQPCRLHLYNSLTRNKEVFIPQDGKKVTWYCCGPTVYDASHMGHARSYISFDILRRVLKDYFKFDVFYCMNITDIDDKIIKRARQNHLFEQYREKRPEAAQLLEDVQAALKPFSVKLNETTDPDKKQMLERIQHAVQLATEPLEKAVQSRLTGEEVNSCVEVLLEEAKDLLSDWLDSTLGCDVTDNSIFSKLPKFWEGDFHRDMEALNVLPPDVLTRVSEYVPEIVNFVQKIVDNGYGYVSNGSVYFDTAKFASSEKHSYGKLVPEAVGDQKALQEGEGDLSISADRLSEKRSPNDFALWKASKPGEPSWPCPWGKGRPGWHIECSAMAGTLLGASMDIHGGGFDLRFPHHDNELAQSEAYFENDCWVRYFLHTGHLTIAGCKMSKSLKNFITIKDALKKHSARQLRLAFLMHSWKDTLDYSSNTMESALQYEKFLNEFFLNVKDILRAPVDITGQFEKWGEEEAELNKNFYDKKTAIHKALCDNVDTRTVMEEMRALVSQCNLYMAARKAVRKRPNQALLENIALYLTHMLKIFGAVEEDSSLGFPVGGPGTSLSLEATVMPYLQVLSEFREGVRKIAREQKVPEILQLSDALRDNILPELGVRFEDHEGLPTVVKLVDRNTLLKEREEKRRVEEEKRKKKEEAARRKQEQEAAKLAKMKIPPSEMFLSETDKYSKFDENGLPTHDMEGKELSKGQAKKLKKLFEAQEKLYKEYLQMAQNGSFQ

[9] = biological target: Atypical kinase COQ8A, mitochondrial (Homo sapiens, UniProt Q8NI60)
[10] = biological target: Serine/threonine-protein kinase SIK2 (Homo sapiens, UniProt Q9H0K1)
[11] = biological target: Mitogen-activated protein kinase kinase kinase kinase 4 (Homo sapiens, UniProt O95819)
[12] = biological target: Dual specificity tyrosine-phosphorylation-regulated kinase 1A (Homo sapiens, UniProt Q13627)
Note: in the data inactive means no Kd found up to 30 µM.

Chain of STE20-like serine/threonine-protein kinase (Q9H2G2 whole entry): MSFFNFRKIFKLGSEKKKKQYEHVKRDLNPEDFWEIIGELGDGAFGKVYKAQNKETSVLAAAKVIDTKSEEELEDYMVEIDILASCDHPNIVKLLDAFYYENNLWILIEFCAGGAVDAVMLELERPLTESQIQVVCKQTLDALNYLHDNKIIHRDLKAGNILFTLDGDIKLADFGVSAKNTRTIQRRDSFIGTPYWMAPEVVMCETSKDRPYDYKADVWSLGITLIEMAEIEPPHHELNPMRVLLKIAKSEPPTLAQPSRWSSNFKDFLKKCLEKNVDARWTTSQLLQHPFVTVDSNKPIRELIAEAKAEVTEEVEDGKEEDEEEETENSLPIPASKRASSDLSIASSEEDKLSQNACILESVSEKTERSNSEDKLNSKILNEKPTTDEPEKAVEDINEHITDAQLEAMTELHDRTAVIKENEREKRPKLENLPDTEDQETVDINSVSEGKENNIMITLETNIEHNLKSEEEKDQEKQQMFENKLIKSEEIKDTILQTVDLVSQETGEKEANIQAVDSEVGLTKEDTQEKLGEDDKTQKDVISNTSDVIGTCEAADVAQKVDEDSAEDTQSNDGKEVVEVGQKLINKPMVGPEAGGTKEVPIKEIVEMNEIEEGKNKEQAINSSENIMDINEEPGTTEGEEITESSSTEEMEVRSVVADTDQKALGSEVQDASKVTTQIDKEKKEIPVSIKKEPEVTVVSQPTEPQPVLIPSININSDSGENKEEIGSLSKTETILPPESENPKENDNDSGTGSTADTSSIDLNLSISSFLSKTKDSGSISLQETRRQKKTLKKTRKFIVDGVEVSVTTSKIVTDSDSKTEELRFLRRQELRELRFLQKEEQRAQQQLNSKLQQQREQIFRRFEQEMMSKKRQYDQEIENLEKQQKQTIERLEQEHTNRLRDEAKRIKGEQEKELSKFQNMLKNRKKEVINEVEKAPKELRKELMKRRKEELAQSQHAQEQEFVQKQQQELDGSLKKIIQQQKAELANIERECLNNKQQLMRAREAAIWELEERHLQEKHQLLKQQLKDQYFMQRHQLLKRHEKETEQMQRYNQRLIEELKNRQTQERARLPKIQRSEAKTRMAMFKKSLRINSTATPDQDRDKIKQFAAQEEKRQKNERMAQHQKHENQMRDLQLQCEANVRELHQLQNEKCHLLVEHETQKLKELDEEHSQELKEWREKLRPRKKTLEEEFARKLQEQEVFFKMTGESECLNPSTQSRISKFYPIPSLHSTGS
Chain of Mitogen-activated protein kinase kinase kinase kinase 4 (O95819 whole entry): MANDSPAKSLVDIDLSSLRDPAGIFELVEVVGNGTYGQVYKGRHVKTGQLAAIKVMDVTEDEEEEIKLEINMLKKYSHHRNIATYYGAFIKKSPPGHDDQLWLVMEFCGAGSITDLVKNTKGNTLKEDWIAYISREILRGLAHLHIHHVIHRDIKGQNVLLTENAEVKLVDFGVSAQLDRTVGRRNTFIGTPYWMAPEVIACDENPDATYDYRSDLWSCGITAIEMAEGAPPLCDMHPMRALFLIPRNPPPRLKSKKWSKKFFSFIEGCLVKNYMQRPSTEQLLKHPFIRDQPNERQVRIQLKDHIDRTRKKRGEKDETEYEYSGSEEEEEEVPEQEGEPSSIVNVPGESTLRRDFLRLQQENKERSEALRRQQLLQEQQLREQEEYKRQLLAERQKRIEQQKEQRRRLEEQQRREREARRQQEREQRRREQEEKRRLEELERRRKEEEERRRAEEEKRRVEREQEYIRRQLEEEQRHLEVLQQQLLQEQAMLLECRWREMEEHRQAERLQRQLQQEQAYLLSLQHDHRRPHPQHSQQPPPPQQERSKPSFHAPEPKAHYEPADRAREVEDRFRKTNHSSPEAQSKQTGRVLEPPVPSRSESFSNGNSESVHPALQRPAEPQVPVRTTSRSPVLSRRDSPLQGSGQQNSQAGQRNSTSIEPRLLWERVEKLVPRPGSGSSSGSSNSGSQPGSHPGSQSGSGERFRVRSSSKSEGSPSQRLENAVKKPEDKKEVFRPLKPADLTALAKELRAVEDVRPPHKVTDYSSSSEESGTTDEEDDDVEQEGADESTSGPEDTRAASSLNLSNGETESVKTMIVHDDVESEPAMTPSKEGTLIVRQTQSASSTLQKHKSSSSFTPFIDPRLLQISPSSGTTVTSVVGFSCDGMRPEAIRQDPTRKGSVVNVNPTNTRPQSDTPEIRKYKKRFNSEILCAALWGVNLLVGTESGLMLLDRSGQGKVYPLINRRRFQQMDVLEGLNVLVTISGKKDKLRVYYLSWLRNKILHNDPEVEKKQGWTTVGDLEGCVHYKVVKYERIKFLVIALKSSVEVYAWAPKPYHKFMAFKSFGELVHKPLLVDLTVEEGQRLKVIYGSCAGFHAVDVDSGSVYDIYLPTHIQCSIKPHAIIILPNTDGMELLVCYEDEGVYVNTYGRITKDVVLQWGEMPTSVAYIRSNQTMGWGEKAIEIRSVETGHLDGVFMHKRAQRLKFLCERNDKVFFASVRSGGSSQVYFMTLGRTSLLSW
Chain of Serine/threonine-protein kinase SIK2 (Q9H0K1 whole entry): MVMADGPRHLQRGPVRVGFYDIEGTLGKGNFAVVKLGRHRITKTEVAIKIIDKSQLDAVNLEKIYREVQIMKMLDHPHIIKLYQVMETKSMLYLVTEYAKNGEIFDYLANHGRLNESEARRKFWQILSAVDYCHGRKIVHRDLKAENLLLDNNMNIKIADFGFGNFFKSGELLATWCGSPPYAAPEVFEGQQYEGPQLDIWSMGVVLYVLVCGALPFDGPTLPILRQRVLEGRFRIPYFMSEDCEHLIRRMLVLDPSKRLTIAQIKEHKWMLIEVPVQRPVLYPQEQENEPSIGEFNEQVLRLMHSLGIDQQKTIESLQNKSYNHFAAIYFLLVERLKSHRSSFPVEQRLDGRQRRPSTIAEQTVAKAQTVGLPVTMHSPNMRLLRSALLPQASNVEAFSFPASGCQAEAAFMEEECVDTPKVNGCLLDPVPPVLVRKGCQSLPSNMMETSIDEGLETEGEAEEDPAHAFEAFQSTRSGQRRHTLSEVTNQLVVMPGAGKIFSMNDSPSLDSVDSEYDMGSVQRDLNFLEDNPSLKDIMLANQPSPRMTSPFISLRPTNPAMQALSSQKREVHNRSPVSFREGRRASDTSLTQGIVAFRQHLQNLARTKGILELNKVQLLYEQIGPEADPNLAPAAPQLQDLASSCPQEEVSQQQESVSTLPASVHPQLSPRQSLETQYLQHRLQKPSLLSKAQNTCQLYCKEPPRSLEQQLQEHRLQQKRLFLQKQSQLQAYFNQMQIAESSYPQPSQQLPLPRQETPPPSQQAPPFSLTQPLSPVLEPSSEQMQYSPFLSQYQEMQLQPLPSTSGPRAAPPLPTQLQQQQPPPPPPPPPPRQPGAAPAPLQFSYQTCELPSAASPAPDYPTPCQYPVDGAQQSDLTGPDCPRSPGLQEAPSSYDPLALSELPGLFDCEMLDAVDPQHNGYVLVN
Chain of Atypical kinase COQ8A, mitochondrial (Q8NI60 whole entry): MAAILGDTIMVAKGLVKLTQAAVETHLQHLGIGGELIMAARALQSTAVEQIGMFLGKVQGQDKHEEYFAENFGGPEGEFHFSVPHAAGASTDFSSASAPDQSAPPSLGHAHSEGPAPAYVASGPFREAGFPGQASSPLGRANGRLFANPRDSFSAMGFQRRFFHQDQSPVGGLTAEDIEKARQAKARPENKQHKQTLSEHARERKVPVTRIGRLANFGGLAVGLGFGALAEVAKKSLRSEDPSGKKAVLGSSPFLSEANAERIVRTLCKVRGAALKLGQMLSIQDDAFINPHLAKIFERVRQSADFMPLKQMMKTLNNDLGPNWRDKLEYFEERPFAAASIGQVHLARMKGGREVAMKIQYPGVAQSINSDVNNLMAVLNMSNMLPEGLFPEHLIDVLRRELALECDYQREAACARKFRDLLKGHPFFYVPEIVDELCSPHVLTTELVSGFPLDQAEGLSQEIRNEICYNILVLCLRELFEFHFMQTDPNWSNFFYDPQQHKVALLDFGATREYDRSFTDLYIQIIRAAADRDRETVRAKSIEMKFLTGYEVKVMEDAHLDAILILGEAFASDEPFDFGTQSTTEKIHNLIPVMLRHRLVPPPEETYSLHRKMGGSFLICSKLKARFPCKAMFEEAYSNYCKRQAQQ
Chain of Casein kinase I isoform epsilon (P49674 whole entry, canonical isoform): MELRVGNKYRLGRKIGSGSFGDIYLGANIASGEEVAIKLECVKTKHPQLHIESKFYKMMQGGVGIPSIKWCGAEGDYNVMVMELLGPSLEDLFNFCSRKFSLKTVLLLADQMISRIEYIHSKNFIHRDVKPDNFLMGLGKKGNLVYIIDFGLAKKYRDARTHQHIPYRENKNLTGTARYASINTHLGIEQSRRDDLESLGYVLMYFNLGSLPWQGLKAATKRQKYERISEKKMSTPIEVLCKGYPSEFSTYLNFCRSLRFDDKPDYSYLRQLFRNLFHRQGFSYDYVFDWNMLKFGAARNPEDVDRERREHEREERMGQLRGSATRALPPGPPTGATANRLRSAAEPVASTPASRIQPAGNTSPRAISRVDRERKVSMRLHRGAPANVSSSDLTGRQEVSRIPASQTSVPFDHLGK

| Structure (SMILES) | Kd [2] | Kd [3] | Kd [4] | Kd [5] | Kd [6] | Kd [7] | Kd [8] | Kd [9] | Kd [10] | Kd [11] | Kd [12] | Kd [1] |
| --- | --- | --- | --- | --- | --- | --- | --- | --- | --- | --- | --- | --- |
| CCc1cnn2c(NCc3ccc[n+]([O-])c3)cc(N3CCCC[C@H]3CCO)nc12 [DINACICLIB] | > 30 µM (inactive) | > 30 µM (inactive) | > 30 µM (inactive) | > 30 µM (inactive) | > 30 µM (inactive) | > 30 µM (inactive) | > 30 µM (inactive) | > 30 µM (inactive) | > 30 µM (inactive) |  |  | > 30 µM (inactive) |
| CC[C@H](Nc1ncnc2[nH]cnc12)c1nc2cccc(F)c2c(=O)n1-c1ccccc1 [IDELALISIB] | > 30 µM (inactive) | > 30 µM (inactive) | > 30 µM (inactive) | > 30 µM (inactive) | > 30 µM (inactive) |  | > 30 µM (inactive) | > 30 µM (inactive) | > 30 µM (inactive) | > 30 µM (inactive) | > 30 µM (inactive) | > 30 µM (inactive) |
| O=C(O)[C@]1(Cc2cccc(Nc3nccs3)n2)CC[C@@H](Oc2cccc(Cl)c2F)CC1 [MK-5108] | > 30 µM (inactive) | > 30 µM (inactive) | > 30 µM (inactive) | > 30 µM (inactive) | > 30 µM (inactive) | > 30 µM (inactive) | > 30 µM (inactive) | > 30 µM (inactive) | > 30 µM (inactive) | > 30 µM (inactive) | > 30 µM (inactive) | > 30 µM (inactive) |
| CO[C@H]1C[C@@H]2CC[C@@H](C)[C@@](O)(O2)C(=O)C(=O)N2CCCC[C@H]2C(=O)O[C@H]([C@H](C)C[C@@H]2CC[C@@H](OCCO)[C@H](OC)C2)CC(=O)[C@H](C)/C=C(\C)[C@@H](O)[C@@H](OC)C(=O)[C@H](C)C[C@H](C)/C=C/C=C/C=C/1C [EVEROLIMUS] | > 30 µM (inactive) | > 30 µM (inactive) | > 30 µM (inactive) | > 30 µM (inactive) | > 30 µM (inactive) | > 30 µM (inactive) | > 30 µM (inactive) | > 30 µM (inactive) | > 30 µM (inactive) | > 30 µM (inactive) | > 30 µM (inactive) | > 30 µM (inactive) |

Further lines, with some results ahead:

| Kd [2] | Kd [3] | Kd [4] | Kd [5] | Kd [6] | Kd [7] | Kd [8] | Kd [9] | Kd [10] | Kd [11] | Kd [12] | Structure (SMILES) | Kd [1] |
| --- | --- | --- | --- | --- | --- | --- | --- | --- | --- | --- | --- | --- |
| > 30 µM (inactive) | > 30 µM (inactive) | > 30 µM (inactive) | > 30 µM (inactive) | > 30 µM (inactive) | > 30 µM (inactive) | > 30 µM (inactive) | > 30 µM (inactive) | 2.49 µM (active) | > 30 µM (inactive) | > 30 µM (inactive) | CN(C)C(=O)c1cc2cnc(Nc3ccc(N4CCNCC4)cn3)nc2n1C1CCCC1 [RIBOCICLIB] | > 30 µM (inactive) |
| > 30 µM (inactive) | > 30 µM (inactive) | > 30 µM (inactive) | > 30 µM (inactive) | > 30 µM (inactive) | > 30 µM (inactive) | > 30 µM (inactive) | > 30 µM (inactive) | > 30 µM (inactive) | > 30 µM (inactive) | > 30 µM (inactive) | C[C@@H]1CN(Cc2ccc(F)cc2)[C@@H](C)CN1C(=O)c1cc2c(C(=O)C(=O)N(C)C)cn(C)c2cc1Cl [TALMAPIMOD] | > 30 µM (inactive) |
